From publication PMC10959927, “Platinum iodido drugs show potential anti-tumor activity, affecting cancer cell metabolism and inducing ROS and senescence in gastrointestinal cancer cells” (Communications Biology, 2024)

Columns and labels:
Type in all cases: cell-based, human
MKN45 cells = assay: Immunofluorescence of γ-H2AX foci; settings: Fig. 3B; for foci/cell, number of cells in class: cell count
Method: (§1) Cells (7 × 10^4) were seeded on 20 mm coverslips. […] Coverslips were incubated for 1 h with the primary antibody (Cell Signaling: H2AX Ser139 (#2595) and 53BP1 (#4937)) at room temperature, followed by a 1 h incubation with the appropriate secondary antibody. DNA was stained with DAPI. Fluorescence microscopy was performed using a NIKON Eclipse 90i. The image analysis was performed using the software program Nikon NIS-Elements and Image J.

PANC1 cells = assay: Immunofluorescence of γ-H2AX and 53BP1 foci; settings: for foci/cell, share of cells in class (Suma 100) / foci/cell, number of cells in class: PANC1, Fig. 3B; for foci/cell, number of cells in class: cell count
Method: as §1

AGS cells = assay: Immunofluorescence of γ-H2AX and 53BP1 foci; settings: for foci/cell, share of cells in class (Suma 100) / foci/cell, number of cells in class: Fig. 3B; for foci/cell, number of cells in class: cell count
Method: as §1

CC(C)[NH][Pt@SP1]([I])([I])[NH]C(C)C [I6, cis-[PtI2(isopropylamine)2]]
foci/cell, share of cells in class (Suma 100) (MKN45 cells; class <15 foci/cell): 11.9048 | foci/cell, number of cells in class (MKN45 cells; class <15 foci/cell): 5 | foci/cell, share of cells in class (Suma 100) (MKN45 cells; class >61 foci/cell): 33.3333 | foci/cell, number of cells in class (MKN45 cells; class >61 foci/cell): 14 | foci/cell: number of cells with 16-30 foci (PANC1 cells; PANC1, Fig. S4B, cell counts): 43 | foci/cell: number of cells with 31-45 foci (PANC1 cells; PANC1, Fig. S4B, cell counts): 7 | foci/cell: number of cells with 46-60 foci (PANC1 cells; PANC1, Fig. S4B, cell counts): 2 | foci/cell: number of cells with <15 foci (PANC1 cells; PANC1, Fig. S4B, cell counts): 39 | foci/cell: number of cells with >61 foci (PANC1 cells; PANC1, Fig. S4B, cell counts): 5 | foci/cell: share of cells with 16-30 foci (Suma 100) (PANC1 cells; PANC1, Fig. S4B, share of N): 44.7917 | foci/cell: share of cells with 31-45 foci (Suma 100) (PANC1 cells; PANC1, Fig. S4B, share of N): 7.292 | foci/cell: share of cells with 46-60 foci (Suma 100) (PANC1 cells; PANC1, Fig. S4B, share of N): 2.083 | foci/cell: share of cells with <15 foci (Suma 100) (PANC1 cells; PANC1, Fig. S4B, share of N): 40.625 | foci/cell: share of cells with >61 foci (Suma 100) (PANC1 cells; PANC1, Fig. S4B, share of N): 5.208 | foci/cell, share of cells in class (Suma 100) (PANC1 cells; class 16-30 foci/cell): 41.9753 | foci/cell, number of cells in class (PANC1 cells; class 16-30 foci/cell): 34 | foci/cell, share of cells in class (Suma 100) (PANC1 cells; class 31-45 foci/cell): 18.5185 | foci/cell, number of cells in class (PANC1 cells; class 31-45 foci/cell): 15 | foci/cell, share of cells in class (Suma 100) (PANC1 cells; class 46-60 foci/cell): 6.173 | foci/cell, number of cells in class (PANC1 cells; class 46-60 foci/cell): 5 | foci/cell, share of cells in class (Suma 100) (PANC1 cells; class <15 foci/cell): 22.2222 | foci/cell, number of cells in class (PANC1 cells; class <15 foci/cell): 18 | foci/cell, share of cells in class (Suma 100) (PANC1 cells; class >61 foci/cell): 11.1111 | foci/cell, number of cells in class (PANC1 cells; class >61 foci/cell): 9 | foci/cell, share of cells in class (Suma 100) (AGS cells; class 16-30 foci/cell): 23.3831 | foci/cell, number of cells in class (AGS cells; class 16-30 foci/cell): 47 | foci/cell, share of cells in class (Suma 100) (AGS cells; class 31-45 foci/cell): 26.3682 | foci/cell, number of cells in class (AGS cells; class 31-45 foci/cell): 53 | foci/cell, share of cells in class (Suma 100) (AGS cells; class 46-60 foci/cell): 13.9303 | foci/cell, number of cells in class (AGS cells; class 46-60 foci/cell): 28 | foci/cell, share of cells in class (Suma 100) (AGS cells; class <15 foci/cell): 29.3532 | foci/cell, number of cells in class (AGS cells; class <15 foci/cell): 59 | foci/cell, share of cells in class (Suma 100) (AGS cells; class >61 foci/cell): 6.965 | foci/cell, number of cells in class (AGS cells; class >61 foci/cell): 14 | foci/cell: number of cells with 16-30 foci (AGS cells; Fig. S4B, cell counts): 54 | foci/cell: number of cells with 31-45 foci (AGS cells; Fig. S4B, cell counts): 20 | foci/cell: number of cells with 46-60 foci (AGS cells; Fig. S4B, cell counts): 3 | foci/cell: number of cells with <15 foci (AGS cells; Fig. S4B, cell counts): 39 | foci/cell: number of cells with >61 foci (AGS cells; Fig. S4B, cell counts): 4 | foci/cell: share of cells with 16-30 foci (Suma 100) (AGS cells; Fig. S4B, share of N): 45 | foci/cell: share of cells with 31-45 foci (Suma 100) (AGS cells; Fig. S4B, share of N): 16.6667 | foci/cell: share of cells with 46-60 foci (Suma 100) (AGS cells; Fig. S4B, share of N): 2.5 | foci/cell: share of cells with <15 foci (Suma 100) (AGS cells; Fig. S4B, share of N): 32.5 | foci/cell: share of cells with >61 foci (Suma 100) (AGS cells; Fig. S4B, share of N): 3.333
